Measurements reported in patent US20250000971A1, “TLR4 AGONIST FOR MODULATING IMMUNE RESPONSE” (The Children's Medical Center Corporation, priority 2021, published 2025).
“Also recorded” adds a separate entry of the source.

Legend:
[1] = system: human adult and elderly PBMCs; test: TNF production in human adult and elderly PBMCs, 96-well format, 24 h stimulation; format: cell-based
[2] = system: human adult and elderly PBMCs; test: Cytokine responses of PBMC supernatants by 14-multiplex assay; format: cell-based
[3] = system: pattern recognition receptors (PRR) other than TLR4; test: PRR-transfected HEK reporter cell lines, other PRRs; format: cell-based; details: screened at 33 μM
Experimental: (§1) FIGS. 3A-3B. PVP-180 is a novel small molecule TLR4 agonist. FIG. 3A: PVP-180 was screened at 33 μM using pattern recognition receptor (PRR)-transfected HEK reporter cell lines. Cell line responses are also indicated to PRR-specific positive controls as well as a negative control. […] Further assays confirm that PVP-180 chemical stock is free of detectable endotoxin. FIG. 3B: PVP-180 was tested with THP-1 reporter cells as well as THP-1 cells with MyD88, TBK1, or IRF3 knockout. […] Results are reported as a percentage of TNF activity.

human TLR4 = biological target: T1, human TLR4 (Homo sapiens, UniProt O00206+Q9Y6Y9); test: PRR-transfected HEK reporter cell lines, TLR4; format: cell-based; details: HEK reporter cell line, screened at 33 μM
T1 construct: expressed in transfected cells; host or cells: HEK reporter cell line
Experimental: as §1

NF-KB = test: THP-1 reporter cells and THP-1 cells with MyD88, TBK1 or IRF3 knockout; format: cell-based; details: THP-1 reporter cells versus knockout strains
Experimental: as §1

[4] = system: wild type murine bone marrow derived dendritic cells (BMDCs); test: TNF and IL-6 production by wild type murine bone marrow derived dendritic cells; format: cell-based; details: N=4
[5] = system: human elderly peripheral blood mononuclear cells (PBMCs); test: Enriched elderly screen: TNF-inducing activity in human elderly PBMCs (384-well); format: cell-based; details: screen of 310 molecules, PBMCs of 4 elderly donors, 10% autologous plasma
Excerpt: FIG. 1A: A graphical overview depicting screen approach. From a high throughput screen previously conducted, 310 molecules were identified to be activators of either THP-1 cells (monocyte cell line) or primary human adult peripheral blood mononuclear cells (PBMCs). These 310 molecules were assembled into a stimulation plate and then applied to the PBMCs of 4 elderly donors (cultured with 10% autologous plasma). […] Z scores were averaged across all 4 elderly donors. The Z score and chemical structure for PVP-180 are indicated.
In a previous high throughput screen (HTS), a number of hit molecules were identified as potentially being able to activate human immune cells. From 200,000 molecules screened, 177 had activity with NF-KB/IRF-inducing and leukocyte adherence/inducing activity. A separate small screen (9,000 molecules of the 200,000) was also conducted and 133 separate molecules had TNF-inducing activity in adult human peripheral blood mononuclear cells (PBMCs). These molecules originated from various bioactive and commercial libraries such as ChemDiv, ChemBridge, and Asinex. All libraries were owned and provided by the Institute of Chemistry and Cell Biology (ICCB)-Longwood (Harvard Medical School). […]

[6] = system: Balb/c murine model of SARS-COV-2 immunization; test: Balb/c murine model of SARS-COV-2 immunization with rSpike with or without adjuvant; format: in vivo, mice; details: for rSpike immunogenicity: adult (12 weeks) and aged mice (52 weeks), booster on Day 14

T1 sequence (O00206 24-839): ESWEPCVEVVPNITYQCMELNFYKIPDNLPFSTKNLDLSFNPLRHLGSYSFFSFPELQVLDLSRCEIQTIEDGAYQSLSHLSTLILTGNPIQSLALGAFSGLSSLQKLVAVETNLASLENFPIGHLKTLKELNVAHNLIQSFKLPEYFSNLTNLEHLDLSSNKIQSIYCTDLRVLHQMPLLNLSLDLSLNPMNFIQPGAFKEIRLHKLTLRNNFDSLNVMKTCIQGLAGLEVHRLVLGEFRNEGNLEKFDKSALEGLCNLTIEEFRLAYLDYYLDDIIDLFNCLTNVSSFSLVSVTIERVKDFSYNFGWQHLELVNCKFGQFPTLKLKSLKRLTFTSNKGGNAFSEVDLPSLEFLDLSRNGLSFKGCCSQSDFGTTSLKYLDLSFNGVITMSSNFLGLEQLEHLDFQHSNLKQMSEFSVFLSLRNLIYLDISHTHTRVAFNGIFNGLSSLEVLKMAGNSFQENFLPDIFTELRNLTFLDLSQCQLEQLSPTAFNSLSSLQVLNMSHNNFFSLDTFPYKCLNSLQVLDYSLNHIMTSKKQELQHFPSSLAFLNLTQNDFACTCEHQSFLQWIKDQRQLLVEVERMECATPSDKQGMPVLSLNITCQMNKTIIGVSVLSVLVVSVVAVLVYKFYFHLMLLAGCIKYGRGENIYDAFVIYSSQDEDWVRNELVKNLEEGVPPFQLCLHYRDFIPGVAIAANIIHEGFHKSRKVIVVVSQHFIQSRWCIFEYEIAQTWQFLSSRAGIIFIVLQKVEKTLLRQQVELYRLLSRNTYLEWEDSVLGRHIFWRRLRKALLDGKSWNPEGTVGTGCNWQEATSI
T1 sequence (Q9Y6Y9 19-160): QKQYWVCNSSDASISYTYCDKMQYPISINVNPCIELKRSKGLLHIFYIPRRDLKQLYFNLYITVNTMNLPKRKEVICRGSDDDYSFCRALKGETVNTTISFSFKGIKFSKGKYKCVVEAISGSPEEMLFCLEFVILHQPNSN

CC1CCc2cc(F)ccc2N1C(=O)c1ccc(N2CC3CC(C2)c2cccc(=O)n2C3)c(NC(=O)c2cccnc2)c1 (centres unmarked) [PVP-180]
TNF response as fold-change over the positive control (R848) ([1]; at 3 μM and above): more adult-like TNF response | production of TNF ([1]; elderly and adult PBMCs, stimulated for 24 hours, N=4): titration-dependent production of TNF | innate immune response (cytokines), elder versus younger adult leucocytes ([2]; 14-multiplex assay): greater innate immune response in elder leucocytes than in younger adult controls | production of multiple cytokines including TNF, IFNγ and IL-10 ([2]; both populations (adult and elderly PBMCs), PVP-180 at 25 μM, N=4 donors): induced the production of multiple cytokines | cytokine (TNF, IL-6, IL-10, IL-12, GM-CSF, IFN-γ, IL1-β, IP-10) and/or chemokine (CCL2, CCL5, CXCL8) production ([2]; human PBMC in vitro, compound alone): sufficient to induce cytokine | activity toward the other PRRs tested [3]: not the other PRRs tested | activity toward TLR4 (human TLR4): strong activity; also recorded: significant activity | dependence of mechanism on MyD88, TBK1, IRF3 (NF-KB): dependent upon MyD88, TBK1, and IRF3 | induction of IL-6 production [4]: concentration-dependent induction | induction of TNF production [4]: concentration-dependent induction | TNF-inducing activity toward elderly PBMCs [5]: robust activity | rSpike immunogenicity [6]: enhanced rSpike immunogenicity | rSpike immunogenicity ([6]; listed as compound of Formula (I)): enhanced antigen-specific immune response | adjuvant activity in adult mice ([6]; adult mice, overall IgG at Day 28): adjuvant activity in immunized adult mice. though with a less pronounced effect than in aged mice | anti-rSpike IgG2 antibodies ([6]; aged mice): increase | antibody titers versus rSpike alone ([6]; aged mice, overall IgG at Day 28): substantially higher antibody titers | anti-rSpike IgG1 subtype antibodies ([6]; both adult and aged mice): primarily enhanced the production
